Where a SMILES comes first, the peptide text is derived from it.
Key:
[1] = Saline solubility of heptapeptides; type: physicochemical
Procedure: Heptapeptides A-K shown below in Table 1 (SEQ ID NOs: 1-11) were synthesized according to standard Fmoc-mediated solid-phase techniques and purified under typical C18 reverse-phase conditions.
Compounds D-K were considered to be insoluble in saline (<1 mg/mL).

[2] = system: anesthetized acute spinal cord injured (aSCI) rat; experiment: Colorectal (bowel) pressure manometry in anesthetized aSCI rats; type: in vivo; details: doses >10 μg/kg SC
Procedure: (§1) Methods: Studies were conducted in acutely spinal transected rats under isovolumetric bladder pressure recording conditions. Acute spinal cord injury (aSCI) is an in vivo model of isolated bladder smooth muscle contraction without reinforcement from micturition reflexes (i.e., myogenic, not neurogenic, contraction). Thus, it can be viewed as a model of severe bladder underactivity.
Animal preparation: In vivo studies were performed in anesthetized, acutely spinalized (T8-10 level) rats. Rats were anesthetized with urethane (1.2-1.4 g/kg subcutaneous injection). Surgical procedures were then performed with the addition of isoflurane anesthesia (0.05-1.5% in 02) as needed. […]
Bowel Contractility: Colorectal pressure manometry was performed via a latex balloon catheter (length 3-5 cm) inserted (˜4 cm) into the distal rectal/colon region. […] This allowed drug induced changes in colorectal pressure to be monitored. Parameters measured include peak colorectal pressure response, duration of time above baseline activity (in the 1st 5 min after drug administration), area under the curve (measured during the 1st 5 min after drug administration) and the number of contractile events after vehicle and drug administration. […]
(§2) Data analysis: Data were examined qualitatively and quantitatively. The mean, standard deviation and standard error of the mean were calculated using MICROSOFT EXCEL.

[3] = system: anesthetized acute spinal cord injured (aSCI) rat; experiment: Isovolumetric bladder pressure in anesthetized acute spinal cord injured (aSCI) rats; type: in vivo
Procedure: as §1
Animal preparation: In vivo studies were performed in anesthetized, acutely spinalized (T8-10 level) rats. Rats were anesthetized with urethane (1.2-1.4 g/kg subcutaneous injection). Surgical procedures were then performed with the addition of isoflurane anesthesia (0.05-1.5% in 02) as needed.
For aSCI, the skin and muscle on the dorsal side at the level of the lower thoracic vertebrae were incised and the spinal cord was carefully exposed by a laminectomy and transected at the T8-T10 spinal level. Gelfoam was placed at the incision site and the muscle and skin overlying the vertebrae were closed with wound clips. The spinal cord was cut at least 60 min before starting the experimental protocol. […]
as §2

[4] = molecular target: T1, recombinant hNK2R expressed in CHO cells (Homo sapiens, UniProt P21452); experiment: Intracellular calcium mobilization (FLIPR) in CHO-hNK2 cells; type: cell-based
T1 sequence (P21452 1-398): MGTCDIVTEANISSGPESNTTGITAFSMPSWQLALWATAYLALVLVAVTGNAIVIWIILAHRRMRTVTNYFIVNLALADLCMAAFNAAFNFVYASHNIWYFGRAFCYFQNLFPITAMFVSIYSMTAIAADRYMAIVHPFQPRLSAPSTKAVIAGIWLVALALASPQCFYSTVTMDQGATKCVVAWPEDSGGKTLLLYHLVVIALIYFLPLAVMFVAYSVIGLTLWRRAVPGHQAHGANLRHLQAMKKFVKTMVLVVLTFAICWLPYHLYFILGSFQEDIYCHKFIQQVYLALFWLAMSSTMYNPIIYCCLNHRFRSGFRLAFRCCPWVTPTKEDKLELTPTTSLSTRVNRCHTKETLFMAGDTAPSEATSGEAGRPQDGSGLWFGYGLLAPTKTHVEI
Procedure: CHO-hNK1 and CHO-hNK2 cells were seeded into black walled clear-bottom 384-well plates) at a density of 10,000 and 15,000 cells per well in 50 μL culture media, respectively, and grown overnight at 37° C. in a humidified CO2-incubator. Cells were washed in washing buffer using the EMBLA 384 instrument, leaving 20 μL of buffer per well after the final aspiration. Cells were then incubated at 37° C. with the cytoplasmic Ca2+ indicator Fluo-4 AM (final concentration 1 μM) in assay buffer (20 mM HEPES, 145 mM NaCl, 5 mM KCl, 5.5 mM glucose, 1 mM MgCl2 and 2 mM CaCl2, pH 7.4, 0.05% Pluronic F-127 and 0.1% BSA) containing 2.5 mM probenecid for […] (cell loading). Cells were then washed 3 times in washing buffer (20 mM HEPES, 145 mM NaCl, 5 mM KCl, 5.5 mM glucose, 1 mM MgCl2 and 2 mM CaCl2, pH 7.4 and 2.5 mM probenecid) using the EMBLA 384 instrument, leaving 30 μL of buffer in each well after the last wash. Loaded cell plates were transferred to the FLIPR machine and calcium responses were monitored as described below. A dual read-out FLIPR protocol was used, allowing for characterization of both agonist and antagonist profiles. For quality control, in each compound plate the signal was monitored by evaluating the responses to the reference standards (NKA and Substance P).
Concentration response curves of compounds were run in duplicate on two different occasions from the same stock solutions. Test solutions were prepared from 10 mM stock solutions in DMSO and 1 μL of each solution was stamped into V-bottom assay plates containing 49 μL assay buffer. The final concentration of DMSO was 0.5% in each well.

solubility [1]: > 20 mg/mL | EC50 ([4]; calcium mobilization, CHO-hNK2 cells, read-out: hNK2 EC50): 0.08 nM | hNK2 selectivity ratio ([4]; ratio of EC50s hNK1R/hNK2R): 70
Structure (SMILES): CCCC[C@H](NC(=O)[C@H](CC(C)C)N(C)C(=O)CNC(=O)[C@@H](NC(=O)[C@H](Cc1ccccc1)NC(=O)[C@H](CCCNC(=N)N)NC(=O)[C@@H](N)CC(=O)O)C(C)C)C(N)=O [Compound B, Asp-Arg-Phe-Val-Gly-(NMe-Leu)-Nle-NH2] (HELM PEPTIDE1{D.R.F.V.G.[meL].[Nle].[am]}$$$$V2.0; N-terminus assumed)
bowel activity (bowel pressure AUC, first 5 min) [2]: measurable increases in bowel activity | onset of increase in bladder contraction pressure ([3]; SC, anesthetized aSCI rat): < 2 min | bladder activity (peak bladder pressure) ([3]; doses >10 μg/kg SC, aSCI rat): measurable increases in bladder activity
